Source: patent publication US6919354B2, “1-aryl-or 1-alkylsulfonylbenzazole derivatives as 5-hydroxytryptamine-6 ligands” (Wyeth, priority 2001, dated 2005)
Counter-ions that a name gives are not always drawn.

Columns and labels:
[1] = biological target: T1, human cloned 5-HT6 receptors (Homo sapiens, UniProt P50406); test: 5-HT6 binding affinity, [3H]-LSD displacement from membranes of Hela cells expressing human cloned 5-HT6 receptors; conditions: [3H]-LSD 3.0 nM; for Ki: Hela cell membranes, 120 min at room temperature; for inhibition at 1 µM / % inhibition at 1 μM concentration (5-HT6 binding): 1 μM test compound; for inhibition at 1 µM: read-out: % inhibition at 1 μM concentration (5-HT6 binding)
T1 construct: expressed in transfected cells; host or cells: HeLa cells
T1 sequence (P50406 whole entry): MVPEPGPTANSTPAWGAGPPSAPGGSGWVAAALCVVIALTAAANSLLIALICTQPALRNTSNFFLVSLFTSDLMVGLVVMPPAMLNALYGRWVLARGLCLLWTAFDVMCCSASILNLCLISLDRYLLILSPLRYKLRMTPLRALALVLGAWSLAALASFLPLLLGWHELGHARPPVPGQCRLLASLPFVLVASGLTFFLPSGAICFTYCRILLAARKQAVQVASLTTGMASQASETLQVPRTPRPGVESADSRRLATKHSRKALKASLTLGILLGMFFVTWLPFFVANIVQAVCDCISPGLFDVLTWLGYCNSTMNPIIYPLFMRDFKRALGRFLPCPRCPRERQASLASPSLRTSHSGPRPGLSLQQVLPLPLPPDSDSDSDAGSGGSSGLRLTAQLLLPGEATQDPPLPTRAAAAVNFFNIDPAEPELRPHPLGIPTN
Procedure: The affinity of test compounds for the serotonin 5-HT6 receptor is evaluated in the following manner. Cultured Hela cells expressing human cloned 5-HT6 receptors are harvested and centrifuged at low speed (1,000×g) for 10.0 min to remove the culture media. The harvested cells are suspended in half volume of fresh physiological phosphate buffered saline solution and recentrifuged at the same speed. This operation is repeated. The collected cells are then homogenized in ten volumes of 50 mM Tris.HCl (pH 7.4) and 0.5 mM EDTA. The homogenate is centrifuged at 40,000×g for 30.0 min and the precipitate is collected. The obtained pellet is resuspended in 10 volumes of Tris.HCl buffer and recentrifuged at the same speed. The final pellet is suspended in a small volume of Tris.HCl buffer and the tissue protein content is determined in aliquots of 10-25 μl volumes. Bovine Serum Albumin is used as the standard in the protein determination according to the method described in Lowry et al., J. Biol. Chem., 193:265 (1951). The volume of the suspended cell membranes is adjusted to give a tissue protein concentration of 1.0 mg/ml of suspension. The prepared membrane suspension (10 times concentrated) is aliquoted in 1.0 ml volumes and stored at −70° C. until used in subsequent binding experiments.
Binding experiments are performed in a 96 well microtiter plate format, in a total volume of 200 μl. […] The test compounds are added in 20.0 μl volume.
The reaction is allowed to proceed in the dark for 120 min at room temperature, at which time, the bound ligand-receptor complex is filtered off on a 96 well unifilter with a Packard Filtermate® 196 Harvester. The bound complex caught on the filter disk is allowed to air dry and the radioactivity is measured in a Packard TopCount® equipped with six photomultiplier detectors, after the addition of 40.0 μl Microscint®-20 scintillant to each shallow well. The unifilter plate is heat-sealed and counted in a PackardTopCount® with a tritium efficiency of 31.0%.
Binding in the presence of varying concentrations of test compound is expressed as a percentage of specific binding in the absence of test compound. The results are plotted as log % bound versus log concentration of test compound. […] A linear regression line of data points is plotted, from which the IC50 value is determined and the Ki value is determined based upon the following equation: Ki=IC50/(1+L/KD) where L is the concentration of the radioactive ligand used and KD is the dissociation constant of the ligand for the receptor, both expressed in nM.

Ki [1]	Compound	also measured
–	O=[N+]([O-])c1ccc(S(=O)(=O)n2ncc3c(OCCN4CCCCC4)cccc32)cc1 (as salt: hydrochloride) [Example 15, 1-[(4-nitrophenyl)sulfonyl]-4-[2-(1-piperidinyl)ethoxy]-1H-indazole]	melting point: 117 to 119 °C
–	O=S(=O)(c1ccc(F)cc1)n1ncc2c(OCCN3CCCCC3)cccc21 (as salt: hydrochloride) [Example 16, 1-[(4-fluorophenyl)sulfonyl]-4-[2-(1-piperidinyl)ethoxy]-1H-indazole]	melting point: 122 °C (dec.)
6 nM	O=S(=O)(c1ccccc1)n1ccc2c(OCCNC3CCOCC3)cccc21 [Example 6, N-(2-{[1-(Phenylsulfonyl)-1H-indol-4-yl]oxy}ethyl)tetrahydro-2H-pyran-4-amine Hydrochloride]	–
4 nM	CN(C)CCOc1cccc2c1ccn2S(=O)(=O)c1ccccc1 [Example 8, N,N-Dimethyl-N-(2-{[1-phenylsulfonyl)-1H-indol-4-yl]oxy}ethylamine Hydrochloride]	–
–	O=S(=O)(c1ccccc1)n1ccc2c(OCCN3CCOCC3)cccc21 [Example 9, 4-(2-Morpholin-4-ylethoxy)-1-(phenylsulfonyl)-1H-indole Hydrochloride]	inhibition at 1 µM [1]: 92%
7 nM	O=S(=O)(c1ccccc1)n1ccc2c(OCCN3CCCCC3)cccc21 [Example 10, 1-(Phenylsulfonyl)-4-(2-piperidin-1-ylethoxy)-1H-indole Hydrochloride]	–
2 nM	O=S(=O)(c1ccccc1)n1ncc2c(OCCN3CCCCC3)cccc21 [Example 13, 1-Phenylsulfonyl)-4-[1-piperidinyl)ethoxy]-1H-indazole Hydrochloride]	–
1 nM	NCCOc1cccc2c1cnn2S(=O)(=O)c1ccccc1 [Example 14, 2-{[1-Phenylsulfonyl)-1H-indazol-4-yl]oxy}ethylamine Hydrochloride]	–
–	O=[N+]([O-])c1ccc(S(=O)(=O)n2ncc3c(OCCN4CCCCC4)cccc32)cc1 [Example 15, 1-[(4-nitrophenyl)sulfonyl]-4-[2-(1-piperidinyl)ethoxy]-1H-indazole]	inhibition at 1 µM [1]: 76%
19 nM	O=S(=O)(c1ccc(F)cc1)n1ncc2c(OCCN3CCCCC3)cccc21 [Example 16, 1-[(4-fluorophenyl)sulfonyl]-4-[2-(1-piperidinyl)ethoxy]-1H-indazole]	–
6 nM	O=S(=O)(c1ccccc1)n1ncc2c(OCCNC3CCOCC3)cccc21 [Example 17]	–
11 nM	O=S(=O)(c1ccccc1)n1ncc2c(OCCNC3CCSCC3)cccc21 [Example 18, N-(2-{[1-Phenylsulfonyl)-1H-indazol-4-yl]oxy}ethyl)tetrahydro-2H-thiopyran-4-amine Hydrochloride]	–
1 nM	Nc1ccc(S(=O)(=O)n2ncc3c(OCCN4CCCCC4)cccc32)cc1 [Example 19, 4-({4-[2-(1-Piperidinyl)ethoxy]-1H-indazol-1-yl}sulfonyl)aniline]	–
–	N,N-Bis(3-methoxybenzyl)-N-(2-{[1-(phenylsulfonyl)-1H-indol-4-yl]oxy}ethylamine [Example 7a]	% inhibition at 1 μM concentration (5-HT6 binding) [1]: 94% @ 1 μM*
–	N-(3-methoxybenzyl)-N-(2-{[1-(phenylsulfonyl)-1H-indol-4-yl]oxy}ethylamineH hydrochloride [Example 7b]	% inhibition at 1 μM concentration (5-HT6 binding) [1]: 95% @ 1 μM*

Compound	Ki [1]	also measured
NCCOc1cccc2c1ccn2S(=O)(=O)c1ccccc1 [Example 5, 2-{[1-(Phenylsulfonyl)-1H-indole-4-yl]oxy}ethylamine Hydrochloride]	2 nM	–
